These results are taken from US20260041620A1, “NOVEL AMINO ACID BASED SALTS, COMPOSITIONS AND METHODS FOR TREATING SKIN AND IMPROVING SKIN REJUVENATION AND LONGEVITY” (Sytheon Ltd, priority 2023, published 2026).

Like-named read-outs stand apart in the source and are kept apart here.

By IC50 is commonly meant the concentration that inhibits the measured activity by half. Low readings indicate greater potency in that assay, high ones weaker potency in that assay.

In one assay the target is T1, HDAC 11 (Homo sapiens, UniProt Q96DB2).
T1 construct: purchased BPS Biosciences 50687
T1 sequence (Q96DB2 1-347): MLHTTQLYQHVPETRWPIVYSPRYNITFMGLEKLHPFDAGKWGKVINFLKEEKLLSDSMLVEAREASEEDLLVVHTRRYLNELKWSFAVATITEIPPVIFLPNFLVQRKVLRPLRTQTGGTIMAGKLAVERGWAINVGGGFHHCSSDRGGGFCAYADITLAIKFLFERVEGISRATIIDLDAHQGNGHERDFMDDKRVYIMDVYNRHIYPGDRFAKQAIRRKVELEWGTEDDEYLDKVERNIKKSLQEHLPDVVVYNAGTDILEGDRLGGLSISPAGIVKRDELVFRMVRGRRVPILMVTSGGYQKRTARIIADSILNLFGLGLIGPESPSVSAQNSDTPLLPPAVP
Briefly: HDAC 11 fluorogenic assay kit. The assay is classed as biochemical.

In a further assay the target is T2, FAAH (Homo sapiens, UniProt O00519).
T2 sequence (O00519 1-579): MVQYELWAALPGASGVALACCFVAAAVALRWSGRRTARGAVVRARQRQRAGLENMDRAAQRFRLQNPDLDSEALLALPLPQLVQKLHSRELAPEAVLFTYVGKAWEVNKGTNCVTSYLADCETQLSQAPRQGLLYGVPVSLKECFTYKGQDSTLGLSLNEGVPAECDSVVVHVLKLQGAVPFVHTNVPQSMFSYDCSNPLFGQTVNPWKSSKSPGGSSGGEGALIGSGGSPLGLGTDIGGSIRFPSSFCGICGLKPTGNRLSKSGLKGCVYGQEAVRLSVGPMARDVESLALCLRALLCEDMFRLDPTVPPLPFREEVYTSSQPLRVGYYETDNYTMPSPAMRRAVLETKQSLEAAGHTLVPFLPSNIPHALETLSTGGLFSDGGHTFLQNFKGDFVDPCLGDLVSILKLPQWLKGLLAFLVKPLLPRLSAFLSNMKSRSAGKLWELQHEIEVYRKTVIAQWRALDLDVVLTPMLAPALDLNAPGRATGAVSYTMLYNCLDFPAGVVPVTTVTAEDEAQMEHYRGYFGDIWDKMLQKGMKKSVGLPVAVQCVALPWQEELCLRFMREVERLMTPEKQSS
Briefly: FAAH fluorescence-based inhibitory assay. The assay is classed as biochemical.

A further assay has as its target T3, MAGL (Homo sapiens, UniProt Q99685).
T3 construct: purchased Cayman 10007812
T3 sequence (Q99685 1-303): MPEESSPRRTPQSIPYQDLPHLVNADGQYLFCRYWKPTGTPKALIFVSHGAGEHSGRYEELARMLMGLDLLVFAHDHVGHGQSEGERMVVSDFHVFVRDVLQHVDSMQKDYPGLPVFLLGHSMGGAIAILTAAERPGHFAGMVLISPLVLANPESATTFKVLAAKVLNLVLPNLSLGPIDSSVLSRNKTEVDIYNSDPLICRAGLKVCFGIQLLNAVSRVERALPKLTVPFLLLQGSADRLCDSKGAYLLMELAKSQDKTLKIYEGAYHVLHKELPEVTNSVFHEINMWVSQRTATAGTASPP
Briefly: MAGL inhibitory assay. The assay is classed as biochemical. The procedure:
Each study was performed in duplicate and the results averaged.
The final concentration in each well was 10 μl of sample, 5.6 μM MAGL (Cayman Catalog #10007812) and 23.6 μM 2-Arachidonoyl Glycerol (Cayman catalog #62160).

Another assay addresses HDAC 5 (Homo sapiens, UniProt Q9UQL6).
For the next assay, the target named is T4, HDAC6 (Homo sapiens, UniProt Q9UBN7).
T4 sequence (Q9UBN7 1-1215): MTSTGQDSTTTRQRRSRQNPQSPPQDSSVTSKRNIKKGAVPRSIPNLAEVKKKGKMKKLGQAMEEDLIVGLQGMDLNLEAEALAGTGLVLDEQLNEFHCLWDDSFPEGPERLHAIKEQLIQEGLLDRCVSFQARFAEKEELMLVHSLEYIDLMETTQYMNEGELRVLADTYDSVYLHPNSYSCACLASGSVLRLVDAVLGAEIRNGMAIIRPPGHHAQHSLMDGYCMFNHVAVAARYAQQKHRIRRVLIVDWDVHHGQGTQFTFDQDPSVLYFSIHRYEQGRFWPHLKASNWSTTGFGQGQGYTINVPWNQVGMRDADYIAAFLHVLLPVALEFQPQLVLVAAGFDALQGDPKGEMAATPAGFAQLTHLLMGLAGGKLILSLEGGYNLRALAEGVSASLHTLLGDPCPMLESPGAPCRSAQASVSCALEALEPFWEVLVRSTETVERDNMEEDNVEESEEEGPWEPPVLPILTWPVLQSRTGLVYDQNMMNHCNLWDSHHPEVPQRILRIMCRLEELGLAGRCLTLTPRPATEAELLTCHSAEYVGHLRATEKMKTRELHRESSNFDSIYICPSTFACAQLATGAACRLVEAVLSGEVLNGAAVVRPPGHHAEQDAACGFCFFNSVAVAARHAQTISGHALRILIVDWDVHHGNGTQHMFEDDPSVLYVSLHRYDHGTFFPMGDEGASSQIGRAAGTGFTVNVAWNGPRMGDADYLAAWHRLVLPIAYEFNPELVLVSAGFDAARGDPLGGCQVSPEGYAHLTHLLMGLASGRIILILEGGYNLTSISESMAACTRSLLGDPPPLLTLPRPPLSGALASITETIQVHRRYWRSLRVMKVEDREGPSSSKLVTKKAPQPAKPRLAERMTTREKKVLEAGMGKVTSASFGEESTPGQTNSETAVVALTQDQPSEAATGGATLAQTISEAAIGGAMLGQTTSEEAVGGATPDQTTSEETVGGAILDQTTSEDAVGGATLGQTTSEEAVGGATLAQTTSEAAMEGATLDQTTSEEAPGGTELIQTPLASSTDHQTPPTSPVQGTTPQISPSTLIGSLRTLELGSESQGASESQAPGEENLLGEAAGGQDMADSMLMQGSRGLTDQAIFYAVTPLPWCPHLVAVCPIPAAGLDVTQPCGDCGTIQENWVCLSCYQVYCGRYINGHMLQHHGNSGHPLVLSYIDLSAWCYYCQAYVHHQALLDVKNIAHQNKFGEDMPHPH

For a further assay, the target named is HDAC1 (Homo sapiens, UniProt Q13547). Briefly: HDAC 1 fluorogenic assay kit.
Sequence of HDAC1 (Q13547 whole entry): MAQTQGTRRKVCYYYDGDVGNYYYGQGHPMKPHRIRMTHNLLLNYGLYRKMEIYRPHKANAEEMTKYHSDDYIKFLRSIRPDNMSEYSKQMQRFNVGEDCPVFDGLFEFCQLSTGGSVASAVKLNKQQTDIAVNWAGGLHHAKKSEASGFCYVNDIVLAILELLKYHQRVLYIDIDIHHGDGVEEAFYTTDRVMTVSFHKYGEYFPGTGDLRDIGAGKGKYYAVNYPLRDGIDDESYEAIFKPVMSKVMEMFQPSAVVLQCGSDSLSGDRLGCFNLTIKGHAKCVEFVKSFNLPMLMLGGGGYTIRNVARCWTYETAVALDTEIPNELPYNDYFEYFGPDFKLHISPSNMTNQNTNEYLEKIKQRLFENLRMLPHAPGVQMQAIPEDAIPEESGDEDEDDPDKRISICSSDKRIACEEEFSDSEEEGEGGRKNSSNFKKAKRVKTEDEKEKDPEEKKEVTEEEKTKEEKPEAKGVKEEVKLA

Sequence of HDAC 5 (Q9UQL6 whole entry): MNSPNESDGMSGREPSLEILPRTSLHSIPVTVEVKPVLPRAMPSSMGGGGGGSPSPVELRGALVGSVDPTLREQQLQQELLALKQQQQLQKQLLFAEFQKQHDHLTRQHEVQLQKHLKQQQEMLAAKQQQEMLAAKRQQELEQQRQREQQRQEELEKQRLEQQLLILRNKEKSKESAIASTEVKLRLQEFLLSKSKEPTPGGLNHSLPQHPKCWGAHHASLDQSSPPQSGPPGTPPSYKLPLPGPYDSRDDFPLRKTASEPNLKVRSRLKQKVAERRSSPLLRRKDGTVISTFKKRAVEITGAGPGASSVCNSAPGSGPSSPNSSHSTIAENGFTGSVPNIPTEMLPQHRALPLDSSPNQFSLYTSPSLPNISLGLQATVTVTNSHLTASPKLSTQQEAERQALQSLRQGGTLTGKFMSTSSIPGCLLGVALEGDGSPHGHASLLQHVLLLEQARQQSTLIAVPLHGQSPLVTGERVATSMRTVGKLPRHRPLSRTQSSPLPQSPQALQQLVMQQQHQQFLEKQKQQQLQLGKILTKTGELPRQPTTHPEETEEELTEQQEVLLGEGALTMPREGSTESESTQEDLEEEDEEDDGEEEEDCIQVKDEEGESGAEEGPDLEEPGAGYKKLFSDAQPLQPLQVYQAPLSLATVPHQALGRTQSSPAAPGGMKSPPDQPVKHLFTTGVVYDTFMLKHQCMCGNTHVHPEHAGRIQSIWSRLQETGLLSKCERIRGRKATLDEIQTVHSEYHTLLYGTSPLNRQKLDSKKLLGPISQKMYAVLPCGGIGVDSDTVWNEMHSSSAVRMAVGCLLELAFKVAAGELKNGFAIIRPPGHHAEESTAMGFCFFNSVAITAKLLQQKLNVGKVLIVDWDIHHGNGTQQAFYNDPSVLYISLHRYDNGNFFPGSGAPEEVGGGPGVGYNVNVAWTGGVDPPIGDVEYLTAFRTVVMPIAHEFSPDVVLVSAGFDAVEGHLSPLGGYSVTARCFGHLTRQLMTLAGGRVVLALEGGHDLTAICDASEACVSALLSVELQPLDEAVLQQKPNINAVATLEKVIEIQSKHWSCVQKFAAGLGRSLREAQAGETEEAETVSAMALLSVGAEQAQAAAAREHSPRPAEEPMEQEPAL
Procedure for HDAC 11: (§1) Test materials were stored at room temperature and stock solutions were prepared at 20 mg/ml in DMSO. Further dilutions were made in sterile distilled water immediately before being added to the reaction mixture containing a substrate, and the reaction was triggered by the addition of purified HDAC enzymes, Double distilled water was the negative control and trichostatin (1.5 ug/ml) was used as a positive control for validation of each study. The test procedure was as directed in the assay kits. The products of the reactions were measured by fluorometry at ex/em 350/450 nm using multi-well plate fluorometer Cytofluor 4000 (Applied Biosystem, Foster City, CA) or using SpectraMax i3× Multi-Mode Detection Platform from Molecular Devices (Sunnyvale, CA).
(§2) Statistical significance was assessed with a two-tail Student test. Deviations of ≤20% as compared to water control with p values below 0.05 were considered statistically significant.
Procedure for HDAC 5: as §1, §2
Procedure for HDAC1: as §1, §2
Procedure for HDAC6: as §1, §2

`CCCC(=O)[O-].[Na+]` [Sodium butyrate, reference compound]: the “HDAC 11 activity, % of water-treated controls” value came to 89% on HDAC 11 (50 ug/ml), 87% on HDAC 11 (100 ug/ml), 84% at HDAC 11 (200 ug/ml) and 91% on HDAC 11 (400 ug/ml). Moreover, the concentration for half-maximal inhibition (IC50) on FAAH is 7.31 mM; against MAGL, 5.5 mM. The “HDAC 5 activity, % of water-treated controls” value on HDAC 5 (50 ug/ml) was 38%; on HDAC 5 (100 ug/ml) it was 26%; on HDAC 5 (200 ug/ml) it was 15%; at HDAC 5 (400 ug/ml), 11%. Besides, the “HDAC 6 activity, % of water-treated controls” value was 107% at HDAC6 (50 ug/ml), 110% at HDAC6 (100 ug/ml), 92% on HDAC6 (200 ug/ml) and 102% on HDAC6 (400 ug/ml). The “HDAC 1 activity, % of water-treated controls” value at HDAC1 (50 ug/ml) turned out to be 109%; at HDAC1 (100 ug/ml), 46%; on HDAC1 (200 ug/ml) it was 39%; at HDAC1 (400 ug/ml) it was 38%.
